{"source": "paper PMC7395068", "about": "“The evolution of strategies to minimise the risk of human drug-induced liver injury (DILI) in drug discovery and development” (Archives of Toxicology, 2020)", "origin": "cited, not measured here", "key": {"[1]": {"conditions": "cited from earlier work"}, "[2]": {"conditions": "cited from earlier work", "remark": "listed apart in the source"}, "[3]": {"conditions": "assignment in O'Brien 2006, ref O'Brien 2006"}}, "note": "Like-named read-outs stand apart in the source and are kept apart here. *1 amine or outer side, *2 acyl side, *3 side chain or, on linkers, in order; H or OH if unused. Where a SMILES comes first, the peptide text is derived from it. Bridges are numbered along the chain shown (N, C = ends). Roman numbers before positions name the chains, in order. [ ]: non-standard residue; d: D form. Actinocin(9to1) = Cc1c2oc3c(C)ccc(C(=O)[*:1])c3nc-2c(C(=O)[*:2])c(N)c1=O; NMeV = CN[C@H](C(=O)O)C(C)C; Sar = CNCC(=O)O"}
{"smiles": "Cl.N", "note": "[ammonium chloride]", "values": [{"measurement": "In vivo DILI", "setting": "[1]; in vivo", "value": "-VE"}, {"measurement": "DILI +VE (5-8), DILI -VE (-4)", "setting": "[2]; in vivo", "value": "-VE"}, {"measurement": "DILI severity category", "setting": "[2]; in vivo", "value": "vNo-DILI-Concern"}]}
{"smiles": "C[C@H]1[C@H](NC(=O)/C(=N\\OC(C)(C)C(=O)O)c2csc(N)n2)C(=O)N1S(=O)(=O)O", "note": "[aztreonam]", "values": [{"measurement": "In vivo DILI", "setting": "[1]; in vivo", "value": "-VE"}, {"measurement": "DILI +VE (5-8), DILI -VE (-4)", "setting": "[2]; in vivo", "value": "-VE"}, {"measurement": "DILI severity category", "setting": "[2]; in vivo", "value": "Ambiguous DILI-concern"}]}
{"smiles": "Oc1ccc2c(c1)[C@@]13CCCC[C@@]1(O)[C@@H](C2)N(CC1CCC1)CC3", "note": "[butorphanol]", "values": [{"measurement": "In vivo DILI", "setting": "[1]; […]", "value": "-VE"}, {"measurement": "DILI +VE (5-8), DILI -VE (-4)", "setting": "[2]; ref Chen 2016", "value": "-VE"}, {"measurement": "DILI severity category", "setting": "[2]; ref Chen 2016", "value": "vNo-DILI-Concern"}]}
{"smiles": "CCN1CCN(C(=O)N[C@@H](C(=O)N[C@@H]2C(=O)N3C(C(=O)O)=C(CSc4nnnn4C)CS[C@H]23)c2ccc(O)cc2)C(=O)C1=O", "note": "[cefoperazone]", "values": [{"measurement": "In vivo DILI", "setting": "[1]; in vivo", "value": "-VE"}, {"measurement": "DILI +VE (5-8), DILI -VE (-4)", "setting": "[2]; in vivo", "value": "+VE"}, {"measurement": "DILI severity category", "setting": "[2]; in vivo", "value": "vLess-DILI-Concern"}]}
{"smiles": "CO/N=C(\\C(=O)N[C@@H]1C(=O)N2C(C(=O)O)=C(CSc3nc(=O)c(=O)[nH]n3C)CS[C@H]12)c1csc(N)n1", "note": "[ceftriaxone]", "values": [{"measurement": "In vivo DILI", "setting": "[1]; […]", "value": "-VE"}, {"measurement": "DILI +VE (5-8), DILI -VE (-4)", "setting": "[2]; ref Chen 2016", "value": "+VE"}, {"measurement": "DILI severity category", "setting": "[2]; ref Chen 2016", "value": "vLess-DILI-Concern"}]}
{"smiles": "O=C(N[C@H](CO)[C@H](O)c1ccc([N+](=O)[O-])cc1)C(Cl)Cl", "note": "[chloramphenicol]", "values": [{"measurement": "In vivo DILI", "setting": "[1]; in vivo", "value": "+VE"}, {"measurement": "DILI +VE (5-8), DILI -VE (-4)", "setting": "[2]; in vivo", "value": "-VE"}, {"measurement": "DILI severity category", "setting": "[2]; in vivo", "value": "vNo-DILI-Concern"}]}
{"smiles": "O=C1CCc2cc(OCCCCc3nnnn3C3CCCCC3)ccc2N1", "note": "[cilostazol]", "values": [{"measurement": "In vivo DILI", "setting": "[1]; […]", "value": "-VE"}, {"measurement": "DILI +VE (5-8), DILI -VE (-4)", "setting": "[2]; ref Chen 2016", "value": "-VE"}, {"measurement": "DILI severity category", "setting": "[2]; ref Chen 2016", "value": "Ambiguous DILI-concern"}]}
{"smiles": "C=C1[C@@H](C)[C@H]2[C@H](Cc3ccccc3)NC(=O)[C@]23OC(=O)/C=C/[C@H](O)CCC[C@@H](C)C/C=C/[C@H]3[C@@H]1O", "note": "[cytochalasin b]", "values": [{"measurement": "In vivo DILI", "setting": "[1]; [3]", "value": "+VE"}]}
{"smiles": "C=C1[C@@H](C)[C@H]2[C@H](Cc3ccccc3)NC(=O)[C@]23[C@H](OC(C)=O)/C=C/[C@@](C)(O)C(=O)[C@@H](C)C/C=C/[C@H]3[C@@H]1O", "note": "[cytochalasin d]", "values": [{"measurement": "In vivo DILI", "setting": "[1]; [3]", "value": "+VE"}]}
{"smiles": "Cc1c2oc3c(C)ccc(C(=O)N[C@@H]4C(=O)N[C@H](C(C)C)C(=O)N5CCC[C@H]5C(=O)N(C)CC(=O)N(C)[C@@H](C(C)C)C(=O)O[C@@H]4C)c3nc-2c(C(=O)N[C@@H]2C(=O)N[C@H](C(C)C)C(=O)N3CCC[C@H]3C(=O)N(C)CC(=O)N(C)[C@@H](C(C)C)C(=O)O[C@@H]2C)c(N)c1=O", "note": "[dactinomycin] (I: T[dV]P[Sar][NMeV] / II: T[dV]P[Sar][NMeV]; ester I:1-I:C, II:1-II:C; linker I:N-II:N via Actinocin(9to1))", "values": [{"measurement": "In vivo DILI", "setting": "[1]; in vivo", "value": "+VE"}, {"measurement": "DILI +VE (5-8), DILI -VE (-4)", "setting": "[2]; in vivo", "value": "+VE"}, {"measurement": "DILI severity category", "setting": "[2]; in vivo", "value": "vMost-DILI-Concern"}]}
{"smiles": "CC/C(=C(/CC)c1ccc(O)cc1)c1ccc(O)cc1", "note": "[diethylsilbesterol]", "values": [{"measurement": "In vivo DILI", "setting": "[1]; in vivo", "value": "+VE"}]}
{"smiles": "c1cc[n+]2c(c1)-c1cccc[n+]1CC2", "note": "[diquat]", "values": [{"measurement": "In vivo DILI", "setting": "[1]; in vivo", "value": "+VE"}]}
{"smiles": "CN(CCOc1ccc(NS(C)(=O)=O)cc1)CCc1ccc(NS(C)(=O)=O)cc1", "note": "[dofetilide]", "values": [{"measurement": "In vivo DILI", "setting": "[1]; in vivo", "value": "-VE"}, {"measurement": "DILI +VE (5-8), DILI -VE (-4)", "setting": "[2]; in vivo", "value": "-VE"}, {"measurement": "DILI severity category", "setting": "[2]; in vivo", "value": "vNo-DILI-Concern"}]}
{"smiles": "C[C@]12CC[C@@H]3c4ccc(O)cc4CC[C@H]3[C@@H]1C[C@@H](O)[C@@H]2O", "note": "[estriol]", "values": [{"measurement": "In vivo DILI", "setting": "[1]; in vivo", "value": "-VE"}]}
{"smiles": "C[C@]12CC[C@@H]3c4ccc(O)cc4CC[C@H]3[C@@H]1CCC2=O", "note": "[estrone]", "values": [{"measurement": "In vivo DILI", "setting": "[1]; in vivo", "value": "+VE"}, {"measurement": "DILI +VE (5-8), DILI -VE (-4)", "setting": "[2]; in vivo", "value": "-VE"}, {"measurement": "DILI severity category", "setting": "[2]; in vivo", "value": "Ambiguous DILI-concern"}]}
{"smiles": "CCSCC[C@H](N)C(=O)O", "note": "[ethionine]", "values": [{"measurement": "In vivo DILI", "setting": "[1]; [3]", "value": "+VE"}]}
{"smiles": "CC(O)(P(=O)(O)O)P(=O)(O)O", "note": "[etidronic acid]", "values": [{"measurement": "In vivo DILI", "setting": "[1]; […]", "value": "-VE"}, {"measurement": "DILI +VE (5-8), DILI -VE (-4)", "setting": "[2]; ref Chen 2016", "value": "-VE"}, {"measurement": "DILI severity category", "setting": "[2]; ref Chen 2016", "value": "vNo-DILI-Concern"}]}
{"smiles": "C=CCc1ccc(O)c(OC)c1", "note": "[eugenol]", "values": [{"measurement": "In vivo DILI", "setting": "[1]; in vivo", "value": "+VE"}]}
{"smiles": "O=S(=O)([O-])[O-].[Fe+2]", "note": "[ferrous sulfate]", "values": [{"measurement": "In vivo DILI", "setting": "[1]; […]", "value": "+VE"}]}
{"smiles": "CC1(C)O[C@@H]2C[C@H]3[C@@H]4C[C@H](F)C5=CC(=O)C=C[C@]5(C)[C@H]4[C@@H](O)C[C@]3(C)[C@]2(C(=O)CO)O1", "note": "[flunisolide]", "values": [{"measurement": "In vivo DILI", "setting": "[1]; […]", "value": "-VE"}]}
{"smiles": "CC(C)n1c(/C=C/C(O)CC(O)CC(=O)O)c(-c2ccc(F)cc2)c2ccccc21", "note": "(stereo not drawn) [fluvastatin]", "values": [{"measurement": "In vivo DILI", "setting": "[1]; ref O'Brien 2006", "value": "-VE"}, {"measurement": "In vivo DILI", "setting": "[1]; ref Xu 2008", "value": "-VE"}, {"measurement": "DILI +VE (5-8), DILI -VE (-4)", "setting": "[2]; ref Chen 2016", "value": "+VE"}, {"measurement": "DILI severity category", "setting": "[2]; ref Chen 2016", "value": "vLess-DILI-Concern"}]}
{"smiles": "C=O", "note": "[formaldehyde]", "values": [{"measurement": "In vivo DILI", "setting": "[1]; in vivo", "value": "+VE"}]}
{"smiles": "N[C@H]1C(O)O[C@H](CO)[C@@H](O)[C@@H]1O", "note": "(stereo partly drawn) [glucosamine]", "values": [{"measurement": "In vivo DILI", "setting": "[1]; [3]", "value": "+VE"}]}
{"smiles": "Cl", "note": "[hydrochloric acid]", "values": [{"measurement": "In vivo DILI", "setting": "[1]; in vivo", "value": "+VE"}]}
{"smiles": "COc1ccc2c3c1O[C@H]1C(=O)CC[C@H]4[C@@H](C2)N(C)CC[C@]314", "note": "[hydrocodone]", "values": [{"measurement": "In vivo DILI", "setting": "[1]; in vivo", "value": "-VE"}]}
{"smiles": "C[C@H](CCC(=O)O)C[C@H](C)C[C@H](C)C(=O)/C=C(\\O)[C@H](C)C[C@H](C)C/C=C/[C@@H](C)[C@@H](O)[C@@H](C)[C@@H](O)C[C@@H]1CC[C@@](C)([C@H]2CC[C@@](C)([C@@H](C)O)O2)O1", "note": "[ionomycin]", "values": [{"measurement": "In vivo DILI", "setting": "[1]; [3]", "value": "+VE"}]}
{"smiles": "Nc1nnc(-c2cccc(Cl)c2Cl)c(N)n1", "note": "[lamotrigine]", "values": [{"measurement": "In vivo DILI", "setting": "[1]; […]", "value": "+VE"}, {"measurement": "DILI +VE (5-8), DILI -VE (-4)", "setting": "[2]; ref Chen 2016", "value": "+VE"}, {"measurement": "DILI severity category", "setting": "[2]; ref Chen 2016", "value": "vMost-DILI-Concern"}]}
{"smiles": "CCNC(=O)[C@@H]1CCCN1C(=O)[C@H](CCCNC(=N)N)NC(=O)[C@H](CC(C)C)NC(=O)[C@@H](CC(C)C)NC(=O)[C@H](Cc1ccc(O)cc1)NC(=O)[C@H](CO)NC(=O)[C@H](Cc1c[nH]c2ccccc12)NC(=O)[C@H](Cc1c[nH]cn1)NC(=O)[C@@H]1CCC(=O)N1", "note": "[leuprolide]", "values": [{"measurement": "In vivo DILI", "setting": "[1]; in vivo", "value": "-VE"}]}
{"smiles": "Cc1cccc(O)c1", "note": "[m-cresol]", "values": [{"measurement": "In vivo DILI", "setting": "[1]; in vivo", "value": "+VE"}]}
{"smiles": "O=C(O)CC(=O)O", "note": "[malonic acid]", "values": [{"measurement": "In vivo DILI", "setting": "[1]; in vivo", "value": "+VE"}]}
